From patent US8772343B2, “Chemical compounds” (Pfizer Limited, priority 2010, dated 2014)
Where a name gives a salt, the structure may show the parent alone.

molecular target: T1, Nav1.7 (or SCN9A) channel (Homo sapiens, UniProt Q15858); assay: Nav1.7 PatchXpress automated whole-cell electrophysiology in HEK cells expressing hSCN9A; type: cell-based; details: estimated IC50 from single point data, PatchXpress assay, held at V1/2 of inactivation, read-out: Nav1.7 EIC50
T1 construct: expressed in transfected cells
T1 sequence (Q15858 whole entry): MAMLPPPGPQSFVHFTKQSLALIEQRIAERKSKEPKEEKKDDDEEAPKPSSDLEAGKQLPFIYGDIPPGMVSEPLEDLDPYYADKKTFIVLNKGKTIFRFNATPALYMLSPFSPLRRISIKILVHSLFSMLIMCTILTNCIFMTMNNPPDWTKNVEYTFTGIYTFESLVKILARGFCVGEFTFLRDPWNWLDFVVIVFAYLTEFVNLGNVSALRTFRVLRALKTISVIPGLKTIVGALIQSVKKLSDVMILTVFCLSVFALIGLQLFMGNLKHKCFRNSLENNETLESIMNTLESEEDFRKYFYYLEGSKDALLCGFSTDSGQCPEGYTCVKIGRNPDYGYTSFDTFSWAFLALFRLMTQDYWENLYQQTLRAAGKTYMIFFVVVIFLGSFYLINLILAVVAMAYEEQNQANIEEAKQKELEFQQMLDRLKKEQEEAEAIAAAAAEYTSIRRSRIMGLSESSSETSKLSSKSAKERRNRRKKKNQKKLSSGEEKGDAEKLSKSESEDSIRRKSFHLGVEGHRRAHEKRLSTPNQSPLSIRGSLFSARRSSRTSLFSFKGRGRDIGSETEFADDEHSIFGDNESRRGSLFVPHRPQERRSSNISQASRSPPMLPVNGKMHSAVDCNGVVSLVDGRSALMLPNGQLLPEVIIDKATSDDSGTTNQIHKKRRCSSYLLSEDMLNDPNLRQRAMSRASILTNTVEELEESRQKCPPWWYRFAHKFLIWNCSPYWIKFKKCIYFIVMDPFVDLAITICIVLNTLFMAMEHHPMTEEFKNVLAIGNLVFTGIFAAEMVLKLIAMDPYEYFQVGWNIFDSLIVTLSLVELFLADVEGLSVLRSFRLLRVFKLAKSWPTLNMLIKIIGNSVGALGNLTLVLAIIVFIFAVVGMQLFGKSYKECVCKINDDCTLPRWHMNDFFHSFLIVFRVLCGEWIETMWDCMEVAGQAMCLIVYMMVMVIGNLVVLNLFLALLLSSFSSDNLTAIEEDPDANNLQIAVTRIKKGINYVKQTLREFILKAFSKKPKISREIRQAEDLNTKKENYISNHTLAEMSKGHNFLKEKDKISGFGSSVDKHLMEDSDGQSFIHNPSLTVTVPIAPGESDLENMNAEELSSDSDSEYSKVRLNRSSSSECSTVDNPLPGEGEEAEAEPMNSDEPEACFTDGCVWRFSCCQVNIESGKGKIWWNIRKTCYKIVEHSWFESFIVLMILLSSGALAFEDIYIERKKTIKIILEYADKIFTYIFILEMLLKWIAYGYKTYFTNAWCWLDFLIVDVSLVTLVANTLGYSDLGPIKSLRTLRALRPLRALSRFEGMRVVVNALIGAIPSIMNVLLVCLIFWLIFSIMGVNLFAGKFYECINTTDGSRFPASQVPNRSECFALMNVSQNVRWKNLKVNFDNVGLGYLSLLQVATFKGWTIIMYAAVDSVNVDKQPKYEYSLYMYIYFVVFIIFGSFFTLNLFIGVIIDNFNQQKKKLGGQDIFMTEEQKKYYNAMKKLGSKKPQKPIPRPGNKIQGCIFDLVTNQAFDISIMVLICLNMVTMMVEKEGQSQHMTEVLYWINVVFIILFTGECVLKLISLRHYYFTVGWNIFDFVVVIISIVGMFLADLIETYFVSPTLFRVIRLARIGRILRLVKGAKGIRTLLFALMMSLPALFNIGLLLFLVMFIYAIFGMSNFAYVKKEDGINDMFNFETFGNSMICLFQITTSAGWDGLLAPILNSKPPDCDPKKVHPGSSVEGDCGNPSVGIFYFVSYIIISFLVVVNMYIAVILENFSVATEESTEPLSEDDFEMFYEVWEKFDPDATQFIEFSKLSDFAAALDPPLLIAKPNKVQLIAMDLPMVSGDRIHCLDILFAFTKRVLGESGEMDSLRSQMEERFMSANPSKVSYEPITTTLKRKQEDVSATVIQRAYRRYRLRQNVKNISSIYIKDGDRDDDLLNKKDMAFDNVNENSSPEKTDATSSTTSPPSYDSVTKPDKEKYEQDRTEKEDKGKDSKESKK
Method: The ability of the compounds of formula (I) to block the Nav1.7 (or SCN9A) channel were measured using the assay described below.
Human Embryonic Kidney (HEK) cells were transfected with an hSCN9A construct using lipofectamine reagent (Invitrogen), using standard techniques. Cells stably expressing the hSCN9A constructs were identified by their resistance to G-418 (400 μg/ml). Clones were screened for expression using the whole-cell voltage-clamp technique.
HEK cells stably transfected with hSCN9A were maintained in DMEM medium supplemented with 10% heat-inactivated fetal bovine serum and 400 μg/ml G-418 in an incubator at 37° C. with a humidified atmosphere of 10% CO2. For HTS, cells were harvested from flasks by trypsinization and replated in an appropriate multi-well plate (typically 96 or 384 wells/plate) such that confluence would be achieved within 24 hours of plating. For electrophysiological studies, cells were removed from the culture flask by brief trypsinization and re-plated at low density onto glass cover slips. Cells were typically used for electrophysiological experiments within 24 to 72 hours after plating.
Cover slips containing HEK cells expressing hSCN9A were placed in a bath on the stage of an inverted microscope and perfused (approximately 1 ml/minutes) with extracellular solution of the following composition: 138 mM NaCl, 2 mM CaCl2, 5.4 mM KCl, 1 mM MgCl2, 10 mM glucose, and 10 mM HEPES, pH 7.4, with NaOH. […] The osmolarity of the extracellular and intracellular solutions was 300 mOsm/kg and 295 mOsm/kg, respectively. All recordings were made at room temperature (22-24° C.) using AXOPATCH 200B amplifiers and PCLAMP software (Axon Instruments, Burlingame, Calif.).
hSCN9A currents in HEK cells were measured using the whole-cell configuration of the patch-clamp technique (Hamill et al., 1981). Uncompensated series resistance was typically 2 to 5 mega ohms and >85% series resistance compensation was routinely achieved. As a result, voltage errors were negligible and no correction was applied. Current records were acquired at 20 to 50 KHz and filtered at 5 to 10 KHz.
HEK cells stably transfected with hSCN9A were viewed under Hoffman contrast optics and placed in front of an array of flow pipes emitting either control or compound-containing extracellular solutions. All compounds were dissolved in dimethyl sulfoxide to make 10 mM stock solutions, which were then diluted into extracellular solution to attain the final concentrations desired. […] The voltage-dependence of inactivation was determined by applying a series of depolarizing prepulses (8 sec long in 10 mV increments) from a negative holding potential. The voltage was then immediately stepped to 0 mV to assess the magnitude of the sodium current. Currents elicited at 0 mV were plotted as a function of prepulse potential to allow estimation of the voltage at which 50% of the channels were inactivated (midpoint of inactivation or V1/2). Compounds were tested for their ability to inhibit hSCN9A sodium channels by activating the channel with a 20 msec voltage step to 0 mV following an 8 second conditioning prepulse to the empirically determined V1/2. Compound effect (% inhibition) was determined by difference in current amplitude before and after application of test compounds. For ease of comparison, “estimated IC-50” (EIC50) values were calculated from single point electrophysiology data by the following equation, (tested concentration, uM)×(100-% inhibition/% inhibition). Inhibition values<20% and >80% were excluded from the calculation.
Electrophysiological assays were conducted with PatchXpress 7000 hardware and associated software (Molecular Devices Corp). All assay buffers and solutions were identical to those used in conventional whole-cell voltage clamp experiments described above. hSCN9A cells were grown as above to 50%-80% confluency and harvested by trypsinization. […]

`COc1ncccc1-c1cc(C(=O)NS(C)(=O)=O)ccc1Oc1cc(F)cc(C(F)(F)F)c1` [Example 72, 4-[3-fluoro-5-(trifluoromethyl)phenoxy]-3-(2-methoxypyridin-3-yl)-N-(methylsulfonyl)benzamide] and `COc1ncccc1-c1cc(C(=O)NS(C)(=O)=O)ccc1Oc1cc(F)cc(Cl)c1` [Example 53, 4-(3-chloro-5-fluorophenoxy)-3-(2-methoxypyridin-3-yl)-N-(methylsulfonyl)benzamide] are within 1.5-fold of each other in IC50: 100 nM for the first, 120 nM for the second.

First: CS(=O)(=O)NC(=O)c1ccc(Oc2ccc(Cl)cc2)c(-c2ccncc2)c1 [Example 21, 4-(4-chlorophenoxy)-N-(methylsulfonyl)-3-pyridin-4-ylbenzamide]
Second: Cc1cc(-c2cc(C(=O)NS(C)(=O)=O)ccc2Oc2ccc(Cl)cc2)ccn1 [Example 34, 4-(4-chlorophenoxy)-3-(2-methylpyridin-4-yl)-N-(methylsulfonyl)benzamide]
The IC50 of the first is 1.9-fold lower: 4600 nM for the first, 8600 nM for the second.

First: COc1cccc(-c2cc(C(=O)NS(C)(=O)=O)ccc2Oc2ccc(Cl)cc2)c1 [Example 29, 6-(4-chlorophenoxy)-3′-methoxy-N-(methylsulfonyl)-biphenyl-3-carboxamide]
Second: COc1ncc(-c2cc(C(=O)NS(C)(=O)=O)ccc2Oc2ccc(Cl)cc2)cc1F [Example 36, 4-(4-chlorophenoxy)-3-(5-fluoro-6-methoxypyridin-3-yl)-N-(methylsulfonyl)benzamide]
The IC50 of the first is 6.8-fold lower: 570 nM for the first, 3900 nM for the second.

First: COc1ncccc1-c1cc(C(=O)NS(C)(=O)=O)ccc1Oc1ccc(Cl)cc1F [Example 64, 4-(4-chloro-2-fluorophenoxy)-3-(2-methoxypyridin-3-yl)-N-(methylsulfonyl)benzamide]
Second: COc1cc(Cl)ccc1Oc1ccc(C(=O)NS(C)(=O)=O)cc1-c1cccnc1OC [Example 1, 4-(4-chloro-2-methoxyphenoxy)-3-(2-methoxypyridin-3-yl)-N-(methylsulfonyl)benzamide diethylamine salt]
The IC50 of the first is 5-fold lower: 540 nM for the first, 2700 nM for the second. The first is the more potent here.

Compared with `COc1ncccc1-c1cc(C(=O)NS(C)(=O)=O)ccc1Oc1cncc(Cl)c1` [Example 90, 4-[(5-chloropyridin-3-yl)oxy]-3-(2-methoxypyridin-3-yl)-N-(methylsulfonyl)benzamide], `COc1ncccc1-c1cc(C(=O)NS(C)(=O)=O)ccc1Oc1ccc(Cl)c(F)c1` [Example 66, 4-(4-chloro-3-fluorophenoxy)-3-(2-methoxypyridin-3-yl)-N-(methylsulfonyl)benzamide] is 14-fold lower in IC50: 1400 nM for the first, 98 nM for the second. The second is the more potent here.

Compared with `CS(=O)(=O)NC(=O)c1ccc(Oc2ccc(Cl)cc2)c(-c2ccccc2OC(F)(F)F)c1` [Example 24, 6-(4-chlorophenoxy)-N-(methylsulfonyl)-2′-(trifluoromethoxy)biphenyl-3-carboxamide], `CS(=O)(=O)NC(=O)c1ccc(Oc2ccc(Cl)cc2)c(-c2ccccc2Cl)c1` [Example 31, 2′-chloro-6-(4-chlorophenoxy)-N-(methylsulfonyl)-biphenyl-3-carboxamide] is 1.9-fold lower in IC50: 500 nM for the first, 270 nM for the second.

Going from `COc1ncccc1-c1cc(C(=O)NS(C)(=O)=O)ccc1Oc1ccc(C#N)c(Cl)c1` [Example 88, 4-(3-chloro-4-cyanophenoxy)-3-(2-methoxypyridin-3-yl)-N-(methylsulfonyl)benzamide] to `COc1ncccc1-c1cc(C(=O)NS(C)(=O)=O)ccc1Oc1ccc(F)c(F)c1` [Example 55, 4-(3,4-difluorophenoxy)-3-(2-methoxypyridin-3-yl)-N-(methylsulfonyl)benzamide], the IC50 falls from 2500 nM to 440 nM (5.7-fold).

Compared with `CCc1ccc(Oc2ccc(C(=O)NS(C)(=O)=O)cc2-c2cccnc2OC)cn1` [Example 63, 4-[(6-ethylpyridin-3-yl)oxy]-3-(2-methoxypyridin-3-yl)-N-(methylsulfonyl)benzamide], `CCc1ccc(Oc2ccc(C(=O)NS(C)(=O)=O)cc2-c2cccnc2OC)cc1` [Example 77, 4-(4-ethylphenoxy)-3-(2-methoxypyridin-3-yl)-N-(methylsulfonyl)benzamide] is lower in IC50: 3900 nM for the first, less than 1000 nM for the second. The second is the more potent here.

First: COc1ncccc1-c1cc(C(=O)NS(C)(=O)=O)ccc1Oc1ccccc1C(F)(F)F [Example 82, 3-(2-methoxypyridin-3-yl)-N-(methylsulfonyl)-4-[2-(trifluoromethyl)phenoxy]benzamide]
Second: COc1ncccc1-c1cc(C(=O)NS(C)(=O)=O)ccc1Oc1ccccc1 [Example 5, 3-(2-methoxypyridin-3-yl)-N-(methylsulfonyl)-4-phenoxybenzamide]
The IC50 of the first is higher: greater than 1000 nM for the first, 900 nM for the second. The second is the more potent here.

First: Cn1nccc1-c1cc(C(=O)NS(C)(=O)=O)ccc1Oc1ccc(Cl)cc1 [Example 27, 4-(4-chlorophenoxy)-3-(1-methyl-1H-pyrazol-5-yl)-N-(methylsulfonyl)benzamide]
Second: CS(=O)(=O)NC(=O)c1ccc(Oc2ccc(Cl)cc2)c(-c2cc[nH]n2)c1 [Example 10, 4-(4-Chlorophenoxy)-N-(methylsulfonyl)-3-(1H-pyrazol-3-yl)benzamide]
The IC50 of the first is higher: greater than 3000 nM for the first, 940 nM for the second. The second is the more potent here.

Compared with `COc1ncccc1-c1cc(C(=O)NS(C)(=O)=O)ccc1Oc1cnc(C2CC2)c(Cl)c1` [Example 94, 4-(5-chloro-6-cyclopropylpyridin-3-yloxy)-3-(2-methoxypyridin-3-yl)-N-(methylsulfonyl)benzamide], `CS(=O)(=O)NC(=O)c1ccc(Oc2ccc(Cl)cc2)c(-c2cncnc2)c1` [Example 23, 4-(4-chlorophenoxy)-N-(methylsulfonyl)-3-pyrimidin-5-ylbenzamide] is 7-fold higher in IC50: 400 nM for the first, 2800 nM for the second. The first is the more potent here.

molecular target: T1, Nav1.7 (or SCN9A) channel; assay: Nav1.7 Ionworks Quattro automated electrophysiology in HEK cells expressing hSCN9A; type: cell-based; details: estimated IC50, values marked (IW), Ionworks Quattro assay, read-out: Nav1.7 EIC50 (IW)
Method: The ability of the compounds of formula (I) to block the Nav1.7 (or SCN9A) channel were measured using the assay described below. Human Embryonic Kidney (HEK) cells were transfected with an hSCN9A construct using lipofectamine reagent (Invitrogen), using standard techniques. Cells stably expressing the hSCN9A constructs were identified by their resistance to G-418 (400 μg/ml). Clones were screened for expression using the whole-cell voltage-clamp technique. HEK cells stably transfected with hSCN9A were maintained in DMEM medium supplemented with 10% heat-inactivated fetal bovine serum and 400 μg/ml G-418 in an incubator at 37° C. with a humidified atmosphere of 10% CO2. For HTS, cells were harvested from flasks by trypsinization and replated in an appropriate multi-well plate (typically 96 or 384 wells/plate) such that confluence would be achieved within 24 hours of plating. For electrophysiological studies, cells were removed from the culture flask by brief trypsinization and re-plated at low density onto glass cover slips. Cells were typically used for electrophysiological experiments within 24 to 72 hours after plating. Electrophysiological assays were also conducted using the Ionworks Quattro automated electrophysiological platform (Molecular Devices Corp). Intracellular and extracellular solutions were as described above with the following changes, 120 μg/ml amphotericin was added to the intracellular solution to perforate the membrane and allow electrical access to the cells. hSCN9A cells were grown and harvested as for PatchXpress and cells were resuspended in extracellular solution at a concentration of 1×10^6 cells/ml. The onboard liquid handling facility of the Ionworks Quattro was used for dispensing cells and application of test compounds. A voltage protocol was then applied that comprised of a voltage step to fully inactivate the sodium channels, followed by a brief hyperpolarized recovery period to allow partial recovery from inactivation for unblocked sodium channels, followed by a test depolarized voltage step to assess magnitude of inhibition by test compound. Compound effect was determined based on current amplitude difference between the pre-compound addition and post-compound addition scans. Compounds of the Examples were tested in the assays described above and found to have the Nav1.7 EIC50 (uM) values specified in the table below. All data are derived from the PatchXpress assay unless expressly stated otherwise.

First: COc1ncc(-c2cc(C(=O)NS(C)(=O)=O)ccc2Oc2ccc(Cl)cc2)cn1 [Example 40, 4-(4-chlorophenoxy)-3-(2-methoxypyrimidin-5-yl)-N-(methylsulfonyl)benzamide]
Second: CS(=O)(=O)NC(=O)c1ccc(Oc2ccc(Cl)cc2)c(-c2cccc(F)c2)c1 [Example 17, 6-(4-chlorophenoxy)-3′-fluoro-N-(methylsulfonyl)-biphenyl-3-carboxamide]
The IC50 of the first is 5.3-fold higher: 69000 nM for the first, 13000 nM for the second. The second is the more potent here.

Work on `CS(=O)(=O)NC(=O)c1ccc(Oc2ccc(Cl)cc2)c(-c2ccc(C#N)cc2)c1` [Example 25, 6-(4-chlorophenoxy)-4′-cyano-N-(methylsulfonyl)-biphenyl-3-carboxamide] yielded an IC50 of 10000 nM.
